The values that follow come from patent US7598382B2, “Aryl substituted imidazoquinolines” (Coley Pharmaceutical Group, Inc., priority 2002, dated 2009).

Broadly, the melting point is the temperature, or range, at which the solid turns liquid.

A value given as a limit tells only on which side of the number the result lay.

The molecule `CCOCc1nc2c(N)nc3cc(-c4cccnc4)ccc3c2n1CCCCNC(=O)OC(C)(C)C` [Example 157, tert-Butyl {4-[4-amino-2-ethoxymethyl-7-(pyridin-3-yl)-1H-imidazo[4,5-c]quinolin-1-yl]butyl}carbamate] gave a melting point of 117 to 119 °C.

`CCOCc1nc2c(N)nc3cc(-c4cccnc4)ccc3c2n1CCNC(=O)NC(C)C` [Example 388, N-{2-[4-Amino-2-ethoxymethyl-7-(pyridin-3-yl)-1H-imidazo[4,5-c]quinolin-1-yl]ethyl}-N′-(1-methylethyl)urea] had a melting point of 194 to 196 °C.

Regarding `COCCc1nc2c(N)nc3cc(-c4cncc(CO)c4)ccc3c2n1CC(C)(C)O` [Example 141, 1-[4-Amino-7-(5-hydroxymethylpyridin-3-yl)-2-(2-methoxyethyl)-1H-imidazo[4,5-c]quinolin-1-yl]-2-methylpropan-2-ol], the melting point lay in the range of 210 to 211 °C.

Take `CCOCc1nc2c(N)nc3cc(-c4cccc(C(=O)NCC(C)C)c4)ccc3c2n1CCCOC` [Example 171, 3-[4-Amino-2-ethoxymethyl-1-(3-methoxypropyl)-1H-imidazo[4,5-c]quinolin-7-yl]-N-(2-methylpropyl)benzamide]: the melting point was 209 to 210 °C.

As to `CCOCc1nc2c(N)nc3cc(-c4cccc(CO)c4)ccc3c2n1CCCCN1CCCS1(=O)=O` [Example 156, (5-{4-Amino-1-[4-(1,1-dioxidoisothiazolidin-2-yl)butyl]-2-ethoxymethyl-1H-imidazo[4,5-c]quinolin-7-yl}phenyl)methanol], the melting point is 158 to 161 °C.

For `CCOCc1nc2c(N)nc3cc(-c4cccnc4)ccc3c2n1CCNS(C)(=O)=O` [Example 387, N-{2-[4-Amino-2-ethoxymethyl-7-(pyridin-3-yl)-1H-imidazo[4,5-c]quinolin-1-yl]ethyl}methanesulfonamide], the melting point lay within 233 to 235 °C.

As for `CCOCc1cncc(-c2ccc3c(c2)nc(N)c2nc(COCC)n(CC(C)(C)O)c23)c1` [Example 134, 1-[4-Amino-2-ethoxymethyl-7-(5-ethoxymethylpyridin-3-yl)-1H-imidazo[4,5-c]quinolin-1-yl]-2-methylpropan-2-ol], the melting point is 156 to 156.5 °C.

In turn, `CCCc1nc2c(N)nc3cc(-c4cccnc4)ccc3c2n1CC(C)(C)O` [Example 418, 1-[4-Amino-2-propyl-7-(pyridin-3-yl)-1H-imidazo[4,5-c]quinolin-1-yl]-2-methylpropan-2-ol] showed a melting point of 238.5 to 241 °C.

`CC(C)Cn1cnc2c(N)nc3cccc(-c4ccccc4)c3c21` [Example 482, 1-(2-Methylpropyl)-9-phenyl-1H-imidazo[4,5-c]quinolin-4-amine] displayed a melting point of 263 to 265 °C.

Turning to `CCOCc1nc2c(N)nc3cc(-c4ccsc4)ccc3c2n1CC(C)C` [Example 9, 2-Ethoxymethyl-1-isobutyl-7-(thiophen-3-yl)-1H-imidazo[4,5-c]quinolin-4-amine], the melting point was 187 to 189 °C.

Turning to `CCOCc1nc2c(N)nc3cc(-c4cncc(OC)c4)ccc3c2n1CC(C)(C)OCCS(C)(=O)=O` [Example 364, 2-Ethoxymethyl-1-{2-[2-(methanesulfonyl)ethoxy]-2-methylpropyl}-7-(5-methoxypyridin-3-yl)-1H-imidazo[4,5-c]quinolin-4-amine], the melting point was 186 to 188 °C.

`CCOCc1nc2c(N)nc3cc(-c4cccnc4)ccc3c2n1Cc1ccc(CNS(C)(=O)=O)cc1` [Example 493, N-{4-[4-Amino-2-ethoxymethyl-7-(pyridin-3-yl)-1H-imidazo[4,5-c]quinolin-1-ylmethyl]benzyl}methanesulfonamide] showed a melting point of 228 to 229 °C.

In turn, `CCOCc1nc2c(N)nc3cc(-c4cccnc4)ccc3c2n1CCCCN1CCCS1(=O)=O` [Example 153, 1-[4-(1,1-Dioxidoisothiazolidin-2-yl)-butyl]-2-ethoxymethyl-7-(pyridin-3-yl)-1H-imidazo[4,5-c]quinolin-4-amine] returned a melting point of 171 to 173 °C.

`CCOCc1nc2c(N)nc3cc(-c4cncc(CO)c4)ccc3c2n1CCCOC` [Example 167, 2-Ethoxymethyl-1-(3-methoxypropyl)-7-(5-hydroxymethylpyridin-3-yl)-1H-imidazo[4,5-c]quinolin-4-amine] displayed a melting point of 198 to 199 °C.

In the case of `CCOCc1nc2c(N)nc3cc(-c4ccccc4)ccc3c2n1CC(C)C` [Example 108, 2-Ethoxymethyl-1-(2-methylpropyl)-7-phenyl-1H-imidazo[4,5-c]quinolin-4-amine], the melting point was in the range of 176.5 to 178 °C.

`CCOCc1nc2c(N)nc3cc(-c4ccccc4)ccc3c2n1CC1CCNCC1` [Example 192, 2-Ethoxymethyl-7-phenyl-1-(piperidin-4-ylmethyl)-1H-imidazo[4,5-c]quinolin-4-amine]: the melting point fell in the range of 142 to 143 °C.

Regarding `CCOCc1nc2c(N)nc3cc(-c4ccncc4)ccc3c2n1CC(C)C` [Example 116, 2-Ethoxymethyl-1-(2-methylpropyl)-(7-pyridin-4-yl)-1H-imidazo[4,5-c]quinolin-4-amine], the melting point was in the range of 211 to 213 °C.

Turning to `COCc1nc2c(N)nc3cc(-c4cnc(OC)nc4)ccc3c2n1CC(C)(C)O` [Example 397, 1-[4-Amino-2-methoxymethyl-7-(2-methoxypyrimidin-5-yl)-1H-imidazo[4,5-c]quinolin-1-yl]-2-methylpropan-2-ol], the melting point is 241 to 242 °C.

The molecule `CC(C)Cn1cnc2c(N)nc3ccc(-c4csc5ccccc45)cc3c21` [Example 121, 8-Benzo[b]thiophen-3-yl-1-(2-methylpropyl)-1H-imidazo[4,5-c]quinolin-4-amine] had a melting point of 247 to 248 °C.

For the molecule `CCOCc1nc2c(N)nc3cc(-c4ccc(Cl)cc4)ccc3c2n1CCCOC` [Example 169, 7-(4-Chlorophenyl)-2-ethoxymethyl-1-(3-methoxypropyl)-1H-imidazo[4,5-c]quinolin-4-amine], the melting point is 188 to 190 °C.

As to `CCOCc1nc2c(N)nc3cc(-c4ccc(C(=O)N5CCOCC5)cc4)ccc3c2n1CCCOC` [Example 170, {4-[4-Amino-2-ethoxymethyl-1-(3-methoxypropyl)-1H-imidazo[4,5-c]quinolin-7-yl]phenyl}morpholin-4-ylmethanone], the melting point was in the range of 163 to 165 °C.

The molecule `CCOCc1nc2c(N)nc3cc(-c4cccnc4)ccc3c2n1CCCCCS(=O)(=O)NC` [Example 371, Methyl 5-[4-amino-2-ethoxymethyl-7-(pyridin-3-yl)-1H-imidazo[4,5-c]quinolin-1-yl]pentane-1-sulfonamide] registered a melting point of 191 to 192 °C.

In turn, `CCc1nc2c(N)nc3ccc(-c4cccnc4)cc3c2n1CC(C)C` [Example 17, 2-Ethyl-1-isobutyl-8-(pyridin-3-yl)-1H-imidazo[4,5-c]quinolin-4-amine] returned a melting point of more than 250 °C.

The molecule `CCCCc1nc2c(N)nc3cc(-c4ccc(OCCC)cc4)ccc3c2n1CC(C)C` [Example 5, 2-Butyl-1-isobutyl-7-(4-propoxyphenyl)-1H-imidazo[4,5-c]quinolin-4-amine] returned a melting point of 194 to 197 °C.

`COCCc1nc2c(N)nc3cc(-c4cccc(NS(C)(=O)=O)c4)ccc3c2n1CCCN1CCCC1=O` [Example 186, N-(3-{4-Amino-2-(2-methoxyethyl)-1-[3-(2-oxopyrrolidin-1-yl)propyl]-1H-imidazo[4,5-c]quinolin-7-yl}phenyl)methanesulfonamide] had a melting point of 210 to 213 °C.
